Experiment [1] concerns the target T1, Sentrin-specific protease 8 (Homo sapiens, UniProt Q96LD8).
T1 sequence (Q96LD8 whole entry): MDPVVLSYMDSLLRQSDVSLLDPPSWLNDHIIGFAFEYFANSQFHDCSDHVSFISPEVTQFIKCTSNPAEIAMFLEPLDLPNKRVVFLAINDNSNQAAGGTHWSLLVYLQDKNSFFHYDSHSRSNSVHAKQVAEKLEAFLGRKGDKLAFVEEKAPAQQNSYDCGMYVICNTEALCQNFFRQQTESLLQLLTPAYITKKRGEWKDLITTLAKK
Nature of the experiment: inhibition of human SENP8 cleavage activity – biochemical, luminescence, SAR follow-up (AID 504501). The format is functional.

Experiment [2] addresses T2, Protein RecA (Mycobacterium tuberculosis, UniProt P9WHJ3).
T2 sequence (P9WHJ3 whole entry): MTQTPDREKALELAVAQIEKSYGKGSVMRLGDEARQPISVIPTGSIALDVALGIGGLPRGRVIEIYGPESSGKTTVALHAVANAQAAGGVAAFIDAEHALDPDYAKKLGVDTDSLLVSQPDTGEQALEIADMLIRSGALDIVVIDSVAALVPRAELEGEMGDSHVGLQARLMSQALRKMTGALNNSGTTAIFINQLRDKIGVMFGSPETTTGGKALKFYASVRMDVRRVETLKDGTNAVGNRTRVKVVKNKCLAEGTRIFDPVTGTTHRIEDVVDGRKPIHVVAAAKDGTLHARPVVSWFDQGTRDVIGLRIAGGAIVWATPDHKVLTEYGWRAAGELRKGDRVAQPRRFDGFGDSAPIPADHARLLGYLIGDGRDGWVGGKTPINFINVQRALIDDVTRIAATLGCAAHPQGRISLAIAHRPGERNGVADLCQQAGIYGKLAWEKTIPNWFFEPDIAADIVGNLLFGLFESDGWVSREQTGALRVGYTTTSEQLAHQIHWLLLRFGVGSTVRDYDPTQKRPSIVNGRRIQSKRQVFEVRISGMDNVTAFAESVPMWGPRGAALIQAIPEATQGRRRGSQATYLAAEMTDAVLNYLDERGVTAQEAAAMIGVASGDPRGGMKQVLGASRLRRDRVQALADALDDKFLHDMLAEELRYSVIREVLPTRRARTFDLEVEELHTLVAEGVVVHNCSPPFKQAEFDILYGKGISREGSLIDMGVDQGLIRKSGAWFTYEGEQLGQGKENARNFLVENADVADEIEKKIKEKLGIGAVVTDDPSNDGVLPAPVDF
The experiment is described as follows: Fluorescence Cell-Free Homogeneous Dose Retest to Identify Inhibitors of RecA-Intein Splicing Activity. [Related pubchem assays (depositor defined):AID2097, AID2223, AID489010, AID492950]. The format is functional.

Experiment [3] is described as follows: alpha-synuclein stem-loop luciferase translation blockers – H4 neuroglioma cells, luminescence, confirmation (AID 1988). Type of experiment: functional, cell-based.
Experiment [4] in a line: CellTiter-Glo luminescence survival assay, SW480 colon tumor line, concentration-response curve, half-maximal inhibitory concentration (AID 1117338). Type of experiment: functional. Background: Cellular ATP, detected with luciferase, serves as a proxy for viable cell number.
Experiment [5] is described as follows: SNU-C1 cell viability reduction, dose response, CellTiter-Glo luminescence (AID 1117323). Type of experiment: functional, cell-based.
Experiment [6] addresses T3, Zinc finger protein mex-5 (Caenorhabditis elegans, UniProt Q9XUB2).
T3 sequence (Q9XUB2 whole entry): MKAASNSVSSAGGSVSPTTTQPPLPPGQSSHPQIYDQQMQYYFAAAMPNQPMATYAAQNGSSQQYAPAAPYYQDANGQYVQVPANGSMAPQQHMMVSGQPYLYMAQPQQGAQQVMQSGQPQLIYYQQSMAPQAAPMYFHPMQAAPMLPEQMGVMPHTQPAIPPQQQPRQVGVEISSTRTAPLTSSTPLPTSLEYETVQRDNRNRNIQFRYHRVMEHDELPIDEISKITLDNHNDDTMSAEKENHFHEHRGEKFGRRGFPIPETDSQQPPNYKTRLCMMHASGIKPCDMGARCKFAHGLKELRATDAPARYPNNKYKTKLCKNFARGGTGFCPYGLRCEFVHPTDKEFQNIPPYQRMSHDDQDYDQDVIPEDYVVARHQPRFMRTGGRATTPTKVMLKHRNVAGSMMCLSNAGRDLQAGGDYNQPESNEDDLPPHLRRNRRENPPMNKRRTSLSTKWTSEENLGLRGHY
Nature of the experiment: potency of MEX-5 RNA-binding blockers – biochemical, C. elegans, fluorescence polarization, dose response (AID 1960). For orientation: Polarisation of emitted light reports the rotation of a fluorescent probe.

Experiment [7] concerns BJ. Nature of the experiment: cells. Type of experiment: functional, cell-based. The note with it: Homo sapiens.
The nature of experiment [8]: luciferase reporter signal suppression in cells – H4 neuroglioma cells, luminescence, dose response (AID 1990). The format is functional, cell-based. (In a reporter assay the amount or activity of a reporter protein is the signal.)

SMILES strings stand for the structures. Active and inactive are the calls of the source. For most assays here, no stated cut-off is given here; in the data, actives have a measured EC50 and inactives only a lower limit.

What is called IC50 is the concentration that gives 50% inhibition. Turning to `Oc1ccc(/C=N/Nc2cc(N3CCCC3)nc(N3CCCC3)n2)cc1O`, in experiment [1], the IC50 was > 99 µM (inactive).

The term EC50 denotes the concentration that produces a half-maximal response. For the compound `Cc1cc2nc3ccc(N(C)C)cc3[s+]c2cc1N` [TOLONIUM CHLORIDE], the EC50 in experiment [2] was 28 µM (active); in experiment [3] it was 7.13 µM (active); in experiment [6], 35.6 µM (active); in experiment [7] it was 7.39 µM (active); in experiment [8] it was 8.36 µM (active). The IC50 in experiment [4] was 1.4 µM (active); in experiment [5] it was 5.56 µM (inactive).

(Values after ChEMBL document CHEMBL1201862, “PubChem BioAssay data set” (2004).)
